Experiment [1] concerns TNF-α mRNA. The experiment is described as follows: Hyperosmotic stress-induced TNF-α gene expression in rabbit corneal epithelial cells (qPCR). The class given is cell-based. As to conditions: 20 μM peptide 6 h, then hyperosmotic medium (463 mOsM) 3 h, solvent 12.8-fold. On the procedure: (§1) Total RNA was extracted from cells using TRIzol (Invitrogen). Synthesis of cDNA was performed with 1 μg of total RNA at 50° C. for 50 min using oligo(dT) primers and reverse transcriptase (Superscript III; Invitrogen). Briefly, quantification of cDNA was performed in the LightCycler (Roche, Mannheim, Germany) using the DNA Master SYBR Green I kit (Roche) with the following cycling conditions: initial denaturation at 95° C. for 10 min, followed by 40 cycles at 95° C. for 10 s, 60° C. for 10 s, and 72° C. for 10 s and a 5-min terminal incubation at 72° C. The data were calculated with AACt. The expression was then normalized against the expression of glyceraldehyde-3-phosphate dehydrogenase (GAPDH). The PCR primers were mouse Survivin sense, 5′-[…]-3′ (SEQ ID NO: 27), anti-sense, 5′-[…]-3′ (SEQ ID NO: 28) (accession number: NM_001012273.1; PCR product: 136 bp); mouse GAPDH sense, 5′-[…]-3′ (SEQ ID NO: 29), anti-sense, 5′-[…]-3′ (SEQ ID NO: 30) (NM_001289726.1; 149 bp). For analysis rabbit inflammatory gene expression, The PCR primers were rabbit TNF-αsense, 5′-[…]-3′ (SEQ ID NO: 31), anti-sense, 5′-[…]-3′ (SEQ ID NO: 32) (accession number: NM 001082263.1); rabbit IL-1βsense, 5′-[…]-3′(SEQ ID NO: 33), anti-sense, 5′-[…]-3′ (SEQ ID NO: 34) (NM 001082201.1); rabbit GAPDH sense, 5′-[…]-3′ (SEQ ID NO: 35), anti-sense, 5′-[…]-3′ (SEQ ID NO: 36) (accession number:NM 001082253.1). The cycle threshold (Ct) values of the PCR product and a GAPDH (Glyceraldehyde 3-phosphate dehydrogenase) control mRNA were used to calculate relative quantities of mRNA.
(§2) Limbal stem epithelial cells (LSEC) were isolated from 6-month-old New Zealand white rabbits and continuously cultivated for 14 days byDMEM/F-12basalmedium based cell-suspension culture to achieve corneal-liked epithelial cell differentiation as previously described (Ho et al., Stem Cells. 2013; 31:1775). […] After 3 h, quantitative real-time PCR was used to estimate HOP-induced Tumor necrosis factor (TNF)-α and nterleukin-1 beta (IL-1β) expressions. […]
Background: In qPCR the cycle at which signal appears reflects the starting amount.

In experiment [2] the test system is IL-1β mRNA. The experiment is described as follows: Hyperosmotic stress-induced IL-1β gene expression in rabbit corneal epithelial cells (qPCR). The experiment is classed as cell-based. As to conditions: 20 μM peptide 6 h, then hyperosmotic medium (463 mOsM) 3 h, solvent 4.5-fold. On the procedure:
as §1, §2

Experiment [3] relates to survivin mRNA. The experiment can be described thus: Real-time qPCR of survivin mRNA in C2C12 cells. As to conditions: C2C12 cells in low serum media, 20 μM peptide, 6 h. The experiment is classed as cell-based, mouse. On the procedure: as §1
Similar to the approach in Example 1.2.1, the expression level of survivin mRNA in C2C12 cells was used as an indicator for the function of the 6-mer variants in Tables 3 to 5. Briefly, C2C12 cells in low serum media were treated with 20 μM the 6-mer variants for 6 h. […] The results also confirmed that alanine substation at the glutamic acid (E) residues would severely impair the 6-mer activity.

Experiment [4] has as its system Sprague-Dawley rats, retinal ischemia/reperfusion (I/R) injury. The experiment can be described thus: TUNEL staining of I/R-injured rat retina (20 h). The class given is in vivo. As to conditions: for Number of TUNEL-positive cells in retina: subconjunctival injection 1 mM 4 h before I/R, 20 hours after I/R injury, Vehicle + I/R 27.2 ± 2.7; for I/R-induced retinal cell apoptosis (TUNEL staining), in words: subconjunctival injection prior to I/R, 20 h reperfusion. As to the method: Experimental procedures were approved by the Mackay Memorial Hospital Review Board (Taiwan, R.O.C.). All surgeries were performed under aseptic conditions. Adult 10-week-old male Sprague-Dawley rats (initial body weight=312±11 g) were anesthetized by an intraperitoneal injection of xylazine (10 mg/kg). Peptide was dissolved in 0.85% normal saline to 1 mM and delivered by the subconjunctival injection of 100 μL peptide through a 31-Gneedle with a micro-syringe before the induction of I/R. Normal saline was as a vehicle control. Rat I/R was performed after peptide or vehicle injection for 4 h. Pupils were dilated with 0.5% tropicamide and 0.5% phenylephrine. Body temperature was maintained at 37° C. using a heating blanket After dilation of the pupil, the anterior chamber of the right eye was cannulated with a 27-gauge needle connected to a physiological saline reservoir. The intraocular pressure (IOP) was raised to 110 mmHg by keeping the reservoir at 150 cm above the eye, and retinal ischemia was confirmed by observing whitening of the iris and the loss of the red reflex of the retina. After 90 min of ischemia, the cannulating needle was withdrawn and the IOP was returned to normal pressure, resulting in recovery of the blood supply from the retinal artery and reperfusion injury induced. The reperfusion was evident by the return of the red reflex. Corneal analgesia was achieved using 1 or 2 drops of 0.4% oxybuprocaine hydrochloride, and Ofloxacin ophthalmic gel (0.3%) was applied topically to the eye before and after the procedure. Only the right eye was used in all experiments. A sham procedure was performed at left eye served as an intra-animal control.
After I/R for 20 h, rats (n=6 in each group) were euthanized by an overdose of pentobarbital. Enucleated eyeballs were fixed in 4% PFA for 24 h at 4° C. Fixed retinal tissues were embedded in paraffin. To identify apoptosis of retinal cells, 5 μm sections thick cut through the optic disc, de-paraffinized, rehydrated, incubatedwith 20 μg/mL proteinase K for 10 min, and immunofluorescence staining of apoptotic cells was performed using a terminal deoxynucleotidyl transferase(TdT)-mediated dUTP nick-end labeling (TUNEL)-based kit (Roche Molecular Biochemicals, Indianapolis, IN) according to the manufacturer's instructions. Nuclei were located by counterstaining with Hoechst 33258 for 7 min Sections were observed under an epifluorescence microscope (Zeiss Axioplan 2 imaging; Zeiss, Oberkochen, Germany) equipped with a charge-coupled device (CCD) camera (Zeiss AxioCam HRm, Zeiss) (×400, 6 fields/sample), and quantification was performed using Axiovert software (Zeiss AxioVision Release 4.8.2, Zeiss). Three sections per eye were averaged and the mean of six eyes was recorded as the representative value for each group.
In this example, the neuroprotective effect of the 6-mer variant peptides on neural retina cells and retinal capillary system was investigated using a rat model of I/R injury described in the “Material and Methods” section. Briefly, 6-mer variant peptide (1 mM, 120 μl) was injected into the subconjunctival space of Sprague-Dawley rats for 4 h before the induction of I/R. Then, I/R injury was induced in rat retinas by increasing the intraocular pressure (IOP) in the eye to 110 mmHg for 90 min, followed by 20 h of reperfusion. Subsequently, the level of retinal cell apoptosis was evaluated using TUNEL staining. In addition, the retinal morphology was analyzed with H&E staining 14 days after the I/R injury. Results are summarized in FIGS. 6 to 10, and Tables 6 to 9.

Experiment [5] relates to C57BL/6 mice, dry eye induced in controlled environment chamber (CEC). The experiment is described as follows: Dry eye animal model, corneal fluorescein staining. The experiment is classed as in vivo, mouse. As to conditions: mice 14 days in CEC, then treatment for 4 days. As to the method: Dry eyes were induced by placing mice in a controlled environment chamber (CEC) for 14 days in accordance with procedures previously described by Barabino et al (IVOS (2005) 46(8), 2766-2771). Mice placed in the CEC were exposed to a condition, in which relative humidity (RH) was maintained at <25%, temperature at 20-22° C., and airflow at about 15 L/min, for 12 hours per day. Control mice were kept in a normal environment (RH>50%, no air flow, temperature of 20-22° C.) for the same duration.
A common artificial tear formulation, 1% carboxymethylcelllulose (CMC) dissolved in balanced salt solution (BSS) was used as the peptide vehicle. Peptide (100 μM, about 0.7 μg peptide in 10 μl eye drop used for treating one eye) or 1% CMC vehicle was topically administered to eyes three times a day. To test whether the present synthetic peptide could exert any therapeutic action on dry eyes, mice were housed at CEC for 14 days without topical treatment, and then were treated with the present peptide for 4 days.
Animals were anesthetized by an intraperitoneal injection of a mixture of zoletil (6 mg/kg) and xylazine (3 mg/kg). Corneal epithelial injury was determined by staining with topical fluorescein (Fluor-I-Strip, Ayerst Laboratories, Philadelphia, PA). Corneal fluorescein staining was examined with a slit-lamp biomicroscope under cobalt blue light and photographed with a digital camera. Dye staining of the cornea was scored in a blinded manner as follows: score 0 for no punctuate staining; score 1 when less than one third of the cornea was stained; score 2 when two thirds or less was stained; and score 3 when more than two thirds was stained (Horwath-Winter J 2013).
Briefly, mice were housed at controlled environment chamber (CEC) for 14 days (set as Day 0) to induce corneal surface disruption. Corneal fluorescein staining was used to estimate the corneal surface injury and the animal with a staining score of 2 (after mice placed at CEC for 14 days) was subjected to peptide treatment. The 6-mer variant peptide formulation for the treatment of DED was described in Methods. […]

We go through four substances from patent US12221494B2, “Short synthetic peptides and their uses for treating retinal degenerative diseases and/or tissue injuries” (MacKay Memorial Hospital, priority 2019, dated 2025).

Ends that are not written are not given here.

As for “NH2-Ala-Leu-Gly-Ala-Glu-Gln-COOH (ALGAEQ; not fully specified (N-terminus, C-terminus); printed as NH2-Ala-Leu-Gly-Ala-Glu-Gln-COOH) [6-mer Sa]”, the “mRNA expression of TNF-α, in words” value in experiment [1] is “apparently repressed the mRNA expression of TNF-α and IL-1β”. In addition, the “mRNA expression of IL-1β, in words” value in experiment [2] is “apparently repressed the mRNA expression of TNF-α and IL-1β”. Moreover, the “survivin mRNA induction compared to solvent control” value in experiment [3] came to 1.7 fold. Moreover, in experiment [4], the “Number of TUNEL-positive cells in retina” value is given as 12.6 ± 1.1 /200 μm and the “I/R-induced retinal cell apoptosis (TUNEL staining), in words” value (shortened to “I/R-induced retinal cell apoptosis”) is “reduced the retinal cell apoptosis induced by I/R”.

Regarding “NH2-Ser-Leu-Gly-(D-Ala)-Glu-Gln-COOH (SLGAEQ; HELM PEPTIDE1{S.L.G.[dA].E.Q}$$$$V2.0; SMILES CC(C)C[C@H](NC(=O)[C@@H](N)CO)C(=O)NCC(=O)N[C@H](C)C(=O)N[C@@H](CCC(=O)O)C(=O)N[C@@H](CCC(N)=O)C(=O)O) [6-mer dA]”, the “survivin mRNA induction, in words” value in experiment [3] is given as “hamper the survivin gene induction activity significantly”. The “therapeutic effect on corneal fluorescein staining, in words” value in experiment [5] is given as “had no therapeutic effect”.

As for “NH2-Ser-Leu-Val-Ala-Glu-Gln-COOH (SLVAEQ; not fully specified (N-terminus, C-terminus); printed as NH2-Ser-Leu-Val-Ala-Glu-Gln-COOH) [6-mer Gv]”, the “mRNA expression of TNF-α, in words” value in experiment [1] is “apparently repressed the mRNA expression of TNF-α and IL-1β”. For the same substance, in experiment [2], the “mRNA expression of IL-1β, in words” value is “apparently repressed the mRNA expression of TNF-α and IL-1β”. The “survivin mRNA induction compared to solvent control” value in experiment [3] is 2.3 fold. Further, in experiment [4], the “Number of TUNEL-positive cells in retina” value is reported as 10.4 ± 1.4 /200 μm and the “I/R-induced retinal cell apoptosis” value is listed as “reduced the retinal cell apoptosis induced by I/R”.

As for “NH2-The-Leu-Gly-Ala-Glu-Gln-COOH (TLGAEQ; not fully specified (N-terminus, C-terminus); printed as NH2-The-Leu-Gly-Ala-Glu-Gln-COOH) [6-mer St]”, the “survivin mRNA induction, in words” value in experiment [3] is on record as “severely impaired the survivin mRNA induction”. In experiment [5], the “therapeutic effect on corneal fluorescein staining, in words” value is “had no therapeutic effect”. Moreover, in experiment [4], the “Number of TUNEL-positive cells in retina” value is recorded as 21.8 ± 1.8 /200 μm and the “I/R-induced retinal cell apoptosis” value is “had no such effect”.
